Source: publication PMC7995547, “ω‐Imidazolyl‐alkyl derivatives as new preclinical drug candidates for treating non‐alcoholic steatohepatitis” (Physiological Reports, 2021)
Values joined by “and” are separate entries in the source; they are usually repeats but may differ in a detail not shown here. Equal values may be shown once.

Assays:
CYP2E1 = test system: CYP2E1; parameters: method as in Diesinger et al., 2020; details: ref Diesinger et al., 2020, cited from earlier work
[1] = test system: HFD‐induced NASH rat model (liver); assay: Liver histopathology, semi‐quantitative evaluation, NASH rat model; format: in vivo, Wistar rats; parameters: key to Steatosis score / Balooning score: 0, none; 1, ≤25%; 2, 26–50%; 3, ≥51–75% of liver parenchyma; details: for Balooning score / Inflammation score / Steatosis score: H.E.‐stained liver slices
Description: (§1) Studies were done using Wistar rats of female sex by the Institute of Pharmacology and Biochemistry at Minsk. The animals were 80–90 days old and weighed 180–200 g. They had free access to a liquid Lieber‐DeCarli (LDC) diet (Lieber et al., 2004) and were housed under standard conditions meaning a 12‐h light/dark cycle at 22 ± 2°C and 55 ± 5% humidity.
(§2) Group 1 was designated as the first control group; it was fed a normal standard solid diet. Group 2, as the second control group, was fed a standard amount of fat as a part of the liquid “physiological,” non‐high fat LDC diet. All other groups received the liquid ‘disease‐causing’ LDC diet (Table 2), including a high content of unsaturated fatty acids.
(§3) Both LDC diets were in a liquid form as produced by ssniff‐Spezialdiäten GmbH, Soest (Germany). The feed was provided over the entire experimental period of 16 weeks; however, the corresponding experimental substances were only administered in the last four weeks (Figure 3).
(§4) The experimental substances I‐ol, I‐an, and UDCA were dissolved in a 0.8% aqueous HPMC gel to obtain the following concentrations: (1) I‐ol at 0.4, 4, and 40 mg/kg body weight (b.w.), (2) I‐an at 0.4, 4, and 40 mg/kg b.w., and (3) UDCA at 40 mg/kg b.w. The Group‐2 and −3 rats received only HPMC as placebo. Each test encompassed 6–8 rats that were put up in a separate cage. The rats were fed ad libitum, and their intake per cage was controlled daily. In order to ensure an exact daily reproducible dosage, the experimental substances or only HPMC was administered intragastrically via oral gavage. Basically, the drug therapy of a chronic disease is the more efficient the higher the adherence of the affected patients. This is generally higher with peroral administration than with any other form of application. At the end of the experiment, the animals were sacrificed under fasting conditions, by aorta dissection and exsanguination, after anesthetizing with an intraperitoneal injection of 5% pentobarbital solution.
Pieces of liver tissue measuring 1 × 2 × 0.5 mm were chosen randomly and fixed for a week in the mixture of 1% formaldehyde and 1% paraformaldehyde in Sorensen's phosphate buffer (pH 7.4) (Morphisto GmbH, Frankfurt/Main). After this the pieces were kept in 2.5% glutaraldehyde in same buffer, rinsed and then post‐fixed in 1% solution of osmium tetroxide on the Sorensen's phosphate buffer (pH 7.4). After fixation, the liver samples were dehydrated and embedded in the pre‐polymerized mixture of methyl methacrylate and butyl methacrylate (1:4, v/v) containing 2,4‐dichlorbenzoyl peroxide as a catalyst.
[…] A semi‐quantitative evaluation of the sections was performed according to the procedure described by Koppe et al. (Koppe et al., 2004).

[2] = test system: HFD‐induced NASH rat model (serum); assay: Liver enzyme activities and bilirubin in serum, NASH rat model; format: in vivo, Wistar rats
Description: as §1, §2, §3, §4
(§5) The activities of the liver enzymes aspartate aminotransferase (AST), alanine aminotransferase (ALT), alkaline phosphatase (AP), and γ‐glutamyl transferase (γ‐GT) as well as bilirubin and triglyceride levels in the serum were determined as described by the instructions of BIO‐LA‐tests kit (Erba Lachema, Brno, Czech Republic).

[3] = test system: HFD‐induced NASH rat model (serum); assay: Adipocytokines and glucose metabolism in serum, NASH rat model; format: in vivo, Wistar rats
Description: as §1, §2, §3, §4
The concentrations of adiponectin and TNFα were measured using ELISA kits sold by BioCat GmbH (Heidelberg, Germany), whereas the one for determining leptin level was procured from BioVendor Laboratory Medicine Inc. (Brno, Czech Republic). Insulin concentration was determined using the radioimmunoassay kit RIO‐insulin‐PG‐J125 (IBOCH, Minsk, Belarus). Serum glucose level was determined based on the “Accu‐Check Active blood glucose” monitoring method developed by Roche‐Diagnostics.

[4] = test system: HFD‐induced NASH rat model (liver); assay: Area of connective tissue in the liver (Mallory‐Azan staining), NASH rat model; format: in vivo, Wistar rats; details: lowest concentration (0.4 mg/kg b.w.)
Description: as §1, §2, §3, §4
Liver tissue sections were subject to the Mallory‐Azan (Heidenhain Azan) staining method for visualizing the connective tissues. This method was a modification of the original Mallory staining protocol, wherein azocarmin with a mixture of aniline blue and orange G was used. In this method, the collagen tissue and basophilic granules turn blue, the muscle tissue and acidophilic granules turn orange to red, and the cell nuclei and cytoplasm turn red. Elastic fibers remain unstained; however, they might turn yellow or pink. The proportion of positively stained liver tissue to the total area of the histological slide was determined quantitatively.

[5] = test system: HFD‐induced NASH rat model (liver and serum); assay: End products of fat metabolism (liver and serum lipids), NASH rat model; format: in vivo, Wistar rats
Description: as §1, §2, §3, §4, §5
Extraction of lipids was performed using a solvent composed of chloroform and methanol (2:1 v/v). Thin‐layer chromatography (TLC) was used to separate off neutral lipids and phospholipids. Silicagel G 60 plates (0.25 mm thick) were used. The lipids were separated by ascending chromatography in a system composed of hexane:diethylic ether:glacial acetic acid (73:25:2; v/v/v). They were visualized by iodine vapor and the spots corresponding to triglycerides and cholesterol were scraped off and eluted with methanol for spectrophotometric evaluation. Triglyceride and cholesterol levels were determined using the BIO‐LA‐test kit (Erba Lachema, Brno, Czech Republic). Phospholipid concentration was determined by measuring the levels of phosphomolybdate using an inorganic phosphate reagent containing molybdate (Findlay & Evans, 1987). VLDL level was determined by using the manganese precipitation method (Burstein & Scholnick, 1973) after partial modification (Hirano et al., 2003).

[6] = average over doses, UDCA 40 mg/kg b.w.
[7] = serum, average over doses (I‐ol, I‐an), UDCA 40 mg/kg b.w.
[8] = serum, number: highest concentration (40 mg/kg b.w.), words: compound overall
[9] = average over doses (I‐ol, I‐an), UDCA 40 mg/kg b.w.

In the case of `OCCCCCCCCCCCCn1ccnc1` [I‐ol, 12‐imidazolyl‐1‐dodecanol], the “Inhibition of CYP2E1 (in words)” value (CYP2E1; in vitro experiments) is given as “strong inhibitors of CYP2E1”, the “Binding strength to CYP2E1 (rank)” value (CYP2E1) is given as “highest affinity” and the Balooning score ([1]; 0.4 mg/kg b.w. + HFD) is given as 1 (1, ≤25%). For the same molecule, the Inflammation score ([1]; 0.4 mg/kg b.w. + HFD) was 1–2, the Steatosis score ([1]; 0.4 mg/kg b.w. + HFD) was 0–1 and the Balooning score ([1]; 4.0 mg/kg b.w. + HFD) was 1 (1, ≤25%). The Inflammation score ([1]; 4.0 mg/kg b.w. + HFD) was 1 (1, <5 signs of inflammation), the Steatosis score ([1]; 4.0 mg/kg b.w. + HFD) was 0 and the Balooning score ([1]; 40.0 mg/kg b.w. + HFD) was 1 (1, ≤25%). The Inflammation score ([1]; 40.0 mg/kg b.w. + HFD) was 1 (1, <5 signs of inflammation), the Steatosis score ([1]; 40.0 mg/kg b.w. + HFD) was 0–1 and the “Effect on liver histology (in words)” value ([1]; animals with NASH (HFD)) was “dose‐dependent reduction of the pathological signs”. The “Dose dependence of the effect on γ‐GT activity” value ([2]; 0.4, 4, 40 mg/kg b.w.) was “moderate but very highly significant (p < 0.001), linear, dose‐dependent effect”, the “Serum bilirubin below the levels measured in the disease group and the two control groups” value ([2]; average over doses) was “more than 10%” and the “Decrease in serum bilirubin level compared to disease group” value [2, 6] was 14%. For the same molecule, the “Decrease in γ‐GT enzymatic activity compared to disease group” value [2, 7] was 34%, the “Reduction of the effect of HFD on γ‐GT activity” value [2, 7] was 84% and the “Decrease in ALT enzymatic activity compared to disease group” value ([2]; serum, highest concentrations (40 mg/kg b.w.)) was 16%. For the same molecule, the “Reduction of the effect of HFD on ALT activity” value ([2]; serum, highest concentrations (40 mg/kg b.w.), b87: dose not stated) was 55% and ~70%, the “Decrease in AP enzymatic activity compared to disease group” value [2, 8] was “no therapeutic effect” and the “Decrease in AST enzymatic activity compared to disease group” value [2, 8] was “no therapeutic effect”. The “Reduction of the effect of HFD on serum TNF‐α level” value ([3]; average over doses (I‐ol), UDCA 40 mg/kg b.w.) was 66%, the “Decrease in serum TNF‐α level compared to disease group” value [3, 9] was 49% and the “Decrease in serum leptin compared to disease group” value [3, 9] was 22%. For the same molecule, the “Increase in serum adiponectin compared to disease group” value [3, 9] was 64%, the “Reduction of the effect of HFD on serum adiponectin” value ([3]; average over doses (I‐ol, I‐an), UDCA 40 mg/kg b.w. (elevated the concentration by)) was 78% and the “Reduction of the effect of HFD on serum leptin” value ([3]; average over doses (I‐ol, I‐an), UDCA 40 mg/kg b.w. (reduced leptin concentration)) was 75%. For the same molecule, the “Serum adiponectin above the reference value of control group 1” value ([3]; highest concentration (40 mg/kg b.w.)) was 4%, the “Serum leptin above the reference value of control group 1” value ([3]; highest concentrations (40 mg/kg b.w.)) was 3% and the “Decrease in area of connective tissue in the liver compared to disease group” value [4] was 28%. For the same molecule, the “Reduction of the effect of HFD on area of connective tissue in the liver” value [4] was 72%, the “Serum LDL cholesterol below the reference value of group 1” value ([5]; average over doses) was 11% and the “Decrease in liver triglyceride levels compared to disease group” value [5, 9] was 18%. For the same molecule, the “Reduction of the effect of HFD on liver triglyceride levels” value [5, 9] was 41%, the “Decrease in liver phospholipid levels compared to disease group” value [5, 6] was “no therapeutic effect” and the “Decrease in serum LDL cholesterol” value [5, 6] was 28%. The “Decrease in serum triglyceride levels compared to disease group” value [5, 6] was “no therapeutic effect”, the “Reduction of serum VLDL level” value ([5]; medium concentration (4 mg/kg b.w.)) was 19% and the “Liver cholesterol level below the reference value of group 1” value ([5]; medium dose (4 mg/kg b.w.)) was 7%. For the same molecule, the “Reduction of liver cholesterol level compared to disease group” value ([5]; medium dose (4 mg/kg b.w.)) was 17%.
